Patent US20110306071A1, “Compositions and Methods for Identifying Substrate Specificity of Inhibitors of Gamma Secretase” (ELAN PHARMACEUTICALS, INC., priority 2007, published 2011)

Assays:
[1] = molecular target: T1, gamma secretase γ and ε cleavage of Fas-APPsw-DD (Homo sapiens, UniProt P49768); assay: Concurrent Aβ and AICD ELISA in Fas-APPsw-DD transfected 293 cells (APP γ versus ε cleavage); format: cell-based
T1 construct: active gamma secretase is endogenously and constitutively produced by the cell cultures; endogenous in cells; host or cells: HEK 293, transfected with Fas-APPsw-DD
Description: Polyclonal antibody AICD ELISA. HEK 293 cells were grown under standard conditions to ˜90% confluence. Cells were harvested, counted, and subsequently plated onto PDL-coated 60 mm dishes at 2×10^6 cells/dish in 5 mL media. The cells were allowed to settle onto the dishes for ˜4 hours. Transfection of various construct into cells was performed using standard techniques using Lipofectamine 2000™ (LF2K) (Invitrogen). Briefly, 2 μg plasmid DNA and 4 μL LF2K were diluted into separate 150 μL aliquots of Opti-MEM (Gibco), and allowed to stand for 10-15 minutes. The two aliquots were then mixed, and the DNA:Lipid complex allowed to form for about 20 minutes. The 300 μL DNA:Lipid complex was then added to the cells in 3 mL fresh media, and incubated overnight. In order to administer potential or known gamma secretase inhibitor compounds to cells, the transfected cells were harvested, replated into PDL-coated 24-well plates at 200,000 cells/well, and allowed to settle onto the plates for ˜4 hours. Cells were washed, and 500 μL fresh media added. […]
The term ‘non-selective’ in this instance refers to lack of selectivity for cell Aβ over Notch signaling (or GammaAPP over GammaNotch). […] The calculated γ/ε selectivity of the non-selective compounds (FIG. 11 and Table I) were 0.7, 1.1, 1.8 and 1.9 for DAPT, 44989, 46719 and the Merck compound, respectively. […]

[2] = molecular target: T2, gamma secretase cleavage of C99GVP (AICD-GVP) (Homo sapiens, UniProt P49768); assay: Luciferase reporter gene assay, AICD-GVP transactivation from C99GVP in HEK293 cells; format: cell-based; settings: C99-GVP, FIG. 5C
T2 construct: active gamma secretase is endogenously and constitutively produced by the cell cultures; endogenous in cells; host or cells: HEK 293, co-transfected with C99GVP, pG5E1B-luc and pCMV-β-gal
Description: Luciferase Reporter Gene Assay: Luciferase reporter assays were carried out 48 hr post-transfection. Cells seeded on 96-well plates (BD Biosciences) were washed once with PBS and harvested in 20 μl of reporter lysis buffer (Promega) per well. After adding 100 μl of luminescent substrate (Promega), the luciferase activity was measured with a MicroLumatPlus microplate luminometer (Berthold Technologies). The β-galactosidase activity was measured similarly, using a luminescent β-galactosidase substrate (BD Biosciences). As a control for transfection efficiency and general effect on transcription, the luciferase activity was normalized by measuring β-galactosidase activity on a duplicate plate. All measurements were done in triplicate and repeated at least three times.
Luciferase Assay. After confirming AICD-GVP generation in HEK cells, its ability to transactivate a luciferase reporter gene that contains Gal4 response elements in the upstream activation sequence (UAS) was tested. […] Some residual luciferase activity remained in the presence of excess gamma secretase inhibitors, even though identical treatment completely abolished AICD production as measured by Western blot (FIG. 5B). […]

[3] = system: gamma secretase (secreted Aβ40 and Aβ42); assay: Aβ sandwich ELISA of media from C99GVP or APP transfected HEK cells treated with inhibitors; format: cell-based, Human
Description: Inhibitor Treatment of Transfected HEK Cell: The transition state analogue gamma secretase inhibitor-L685,458 (Sigma) and the peptidomimetic inhibitor-DAPT (Dovey, H. F., et al., J Neurochem., 2001; 76:173-181) were dissolved in DMSO to make 20 mM stocks. Similarly, a number of Elan's series of sulfonamide inhibitors were prepared and used as described herein (see, also FIGS. 11-14). Inhibitors were added to cell cultures (e.g., HEK) at the indicated final concentration, and the treated cells were harvested 48 h post-transfection. The metallo-proteinase inhibitor TAPI-1 (Calbiochem) was used at a final concentration of 40 μM. The Aβ-degrading enzyme inhibitors, Bacitracin (Calbiochem) and phosphoramidon (Calbiochem) were used at final concentration of 1 mg/ml and 40 μM, respectively. All inhibitor experiments were performed in triplicate and repeated at least three times.
ELISAs used to quantify different Aβ species were performed using standard techniques as described above and in (Johnson-Wood, K., et al., Proc. Natl. Acad. Sci. U.S.A., 1997; 94: 1550-1555, incorporated by reference). The Aβ40 and Aβ42 peptides in the samples were captured onto 2G3 or 21F12 antibody coated plates, respectively, and detected with a biotinylated 2H3 antibody. The fluorescence signal generated from a streptavidin-alkaline phosphatase conjugate (Roche) was measured with a CytoFlour microplate reader (Applied Biosystems). Synthetic Aβ40 or Aβ42 peptides (Anaspec) were used to generate standard curves (FIG. 10). All measurements were done in triplicate.
Next, Aβ generation was characterized from C99GVP. Wild type HEK cells and the mock-transfection control secreted little Aβ into the conditioned media (FIG. 5D, lane 1). In contrast, transient expression of C99GVP led to robust Aβ production, as measured by IP/Western blot (FIG. 5D) and ELISAs that detect Aβ 40 and Aβ42 species, respectively ([…], top panel). […] Finally, we compared the Aβ-lowering potency of two inhibitors, using either C99GVP or the wild type APP as substrate. As determined by ELISA, the respective IC50 values for the two substrates are essentially identical (FIG. 5E).

[4] = system: nuclear AICD-GVP in COS-7 cells; assay: Immunostaining, subcellular distribution of AICD-GVP in transfected COS-7 cells; format: cell-based
Description: Immunostaining: Wild type or transiently transfected COS-7 cells (ATCC) were fixed at room temperature with 2% paraformaldehyde in PBS for 20 min and subsequently permeabilized with 0.2% Triton X-100 in PBS for 10 min. C99GVP and mutant substrates as well as AICD-GVP were detected by incubating the samples sequentially with polyclonal anti-VP16 for 2 h and Rhodamine-conjugated donkey anti-goat secondary antibody (Jackson Laboratory Cat. #705-165-003) for 1 h. All staining was visualized on a Bio-Rad MRC 1024ES confocal microscope (Bio-Rad) and captured with a coupled CCD camera.

γ/ε selectivity = IC50 AICD/IC50 Aβ [1]: 0.7
Aβ potency (IC50) with C99GVP versus native APP substrate ([3]; FIG. 5E): equal Aβ potency
SMILES: C[C@H](NC(=O)Cc1cc(F)cc(F)c1)C(=O)N[C@H](C(=O)OC(C)(C)C)c1ccccc1 [DAPT]
luciferase reporter transactivation by AICD-GVP [2]: block luciferase reporter transactivation
secreted Aβ (Aβ40 and Aβ42) ([3]; 5 μM, 24 h, FIG. 5D): block secreted Aβ
nuclear staining of AICD-GVP ([4]; C99GVP transfected COS-7 cells, 5 μM, FIG. 5F): abolished
nuclear staining of JMD chimeras ([4]; JMD chimeras in COS-7 cells, FIG. 6G): abolished
